Results on one molecule are retold here after patent US20130190370A1, “Novel Tetrahydronaphalene Antagonists to the Thromboxane A2 (TP) Receptor” (The Trustees of the University of Pennsylvania, priority 2010, published 2013).

The target of series [1] is T1, mouse TP receptor (Mus musculus, UniProt P30987).
T1 construct: expressed in transfected cells
T1 sequence (P30987 1-341): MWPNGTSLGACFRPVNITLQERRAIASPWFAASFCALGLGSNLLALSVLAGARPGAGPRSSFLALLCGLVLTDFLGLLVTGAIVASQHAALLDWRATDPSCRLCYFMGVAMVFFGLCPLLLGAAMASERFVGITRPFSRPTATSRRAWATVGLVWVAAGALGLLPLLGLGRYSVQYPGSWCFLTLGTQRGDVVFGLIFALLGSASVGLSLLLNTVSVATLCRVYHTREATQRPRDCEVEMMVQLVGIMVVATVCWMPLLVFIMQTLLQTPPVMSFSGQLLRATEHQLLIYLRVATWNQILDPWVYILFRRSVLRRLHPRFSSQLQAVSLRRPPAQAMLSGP
The experiment in a line: Radioligand binding assay (3H-SQ29,548), mouse TP receptor. Conditions: read-out: Kd / affinity at the mouse TP receptor. As for the experimental part: QBI-HEK 293A cells expressing human or mouse TxA2 (TP) receptor were grown as described previously and harvested in phosphate-buffered saline with 1 mM EDTA. The cell pellet was homogenized in a glass homogenizer in 20 mM Hepes, 1 mM EGTA, 0.5 mM DTT with protease inhibitor cocktail. The homogenate was initially centrifuged at 1000×g for 10 minutes at 8° C. to remove cell debris. The homogenate was then centrifuged in a Beckman L8-70M ultracentrifuge (Beckman-Coulter, Brea, Calif., USA) at 21,000 rpm for 30 minutes at 4° C., and the pellet was resuspended in 20 mM Hepes, 1 mM EGTA, 100 mM NaCl. Membrane preparations were normalized to protein level as determined with a BCA assay (ThermoFisher, Rockland, Ill.) and stored at −80° C.
Test antagonists were incubated at 10 different concentrations with 25 μg membrane and 25 nM ^3H-SQ29,548 (PerkinElmer, Waltham, Mass., USA) in 50 mM Tris, 4 mM CaCl2, 0.1% ascorbic acid pH 7.5 for 2 hours at 25° C. in 96-well polystyrene plates. Separation of bound from free radioligand was accomplished by rapid vacuum filtration onto 96-well GF/B filter plates (PerkinElmer, Waltham, Mass., USA). Filters were washed 8 times in 50 mM Tris, pH 6.9 and allowed to dry for 16 hours, Plates were sealed and filters dissolved in 50 μL Betaplate Scintillation fluid (PerkinElmer, Waltham, Mass., USA) and read on a scintillation counter. Data are presented as percent total binding as calculated by a minimum of 3 wells containing membrane and ^3H-SQ29,548 without antagonist.
Equilibrium dissociation constants (Kd), IC50, and Schild regression analyses was performed with GraphPad Prism software (GraphPad Software Inc., La Jolla, Calif., USA).
To facilitate the characterization of the new compounds, cell-based TP receptor functional assays were optimized. HEK293 clones have been produced that stably express the human (hTP) or mouse (mTP) TP receptor (a isoform), and treatment of these clones with I-BOP ([1S-[1α,2α(Z),3β(1E,3S*),4α]]-7-[3-[3-hydroxy-4-(4-iodophenoxy)-1-butenyl]-7-oxabicyclo[2.2.1]hept-2-yl]-5-heptenoic acid) results in increased production of inositol triphosphate (IP3) (Knezevic, et al., 1993, Blood 82:A156; Shenker, et al., 1991, J Biol Chem 266:9309-9313; Huang, et al., 2004, Cell Signal 16:521-533) which can be quantified by measuring the breakdown product, inositol monophosphates (IP1), using a commercial time-resolved fluorescence assay. […] A radioligand binding assay was also developed to allow for the determination of binding affinities of compounds at the hTP and mTP receptors.

Series [2] is described as follows: S18886 brain and plasma levels after administration to mice in drinking water. The format is in vivo. How it is done: Brain and plasma drug levels of S18886 were measured after administration to mice in drinking water, as previously described (Shineman, et al., 2008, J. Neurosci 28:4785-4794). Mice have 20-30 separate drinking bouts over the course of the day (Gannon, et al., 1992, Physiol Behav. 51:515-521), albeit with much greater water consumption during the night. […] In fact, extended exposure to excessively high blood levels of a TP receptor antagonist could increase the risk of bleeding complications due to compromise of platelet function, as it is known that TP receptor knockout mice and TxA2 synthase-deficient mice have prolonged clotting times (Thomas, et al., 1998, J Clin Invest 102:1994-2001; Yu, et al., 2004, Blood 104:135-142). Furthermore, inactivating mutations in the TP receptor have been linked to a dominantly inherited bleeding disorder in humans (Hirata, et al., 1994, J Clin Invest 94:1662-1667).

Where only a bound is given, the exact number is not on record here.

`Cc1ccc2c(c1CCC(=O)O)CC[C@@H](NS(=O)(=O)c1ccc(Cl)cc1)C2` [Compound S18886]: in series [1], the Kd was determined as 360 pM. The “free drug in plasma relative to brain” value in series [2] (drinking water dosing) is reported as above 10 ×. Also, the “calculated free drug concentration in brain as % of Kd at mouse TP receptor” value in series [2] (drinking water dosing, daylight phase) is on record as around 30%. Further, the concentration at 1 day in series [2] (mouse, brain, oral, dosing by drinking water, day 1, daylight phase, read-out: Free S18886 brain level) was 0.093 nM. Moreover, the concentration at 2 day in series [2] (mouse, brain, oral, dosing by drinking water, day 2, daylight phase, read-out: Free S18886 brain level) is 0.117 nM.
